{"source": "ChEMBL document CHEMBL5042535", "about": "“Structure-Based Design and Synthesis of N-Substituted 3-Amino-β-Carboline Derivatives as Potent αβ-Tubulin Degradation Agents” (J Med Chem, 2022)", "key": {"[1]": {"assay": "Drug resistance index, ratio of IC50 for human A549 cancer cell to ratio of IC50 for human A549T cancer cell", "format": "functional"}, "A2780/Taxol [2]": {"tested_on": "A2780/Taxol", "assay": "Antitumor activity against human A2780T cells xenografted in mouse assessed as tumor growth inhibition at 40 mg/kg, iv treated 3 times a week", "format": "functional", "conditions": "read-out: TGI"}, "A2780/Taxol [3]": {"tested_on": "A2780/Taxol", "assay": "Antitumor activity against human A2780T cells xenografted in mouse assessed as tumor growth inhibition at 10 mg/kg, iv treated 3 times a week", "format": "functional", "conditions": "read-out: TGI"}, "NCI/ADR-RES": {"tested_on": "NCI/ADR-RES", "assay": "Cytotoxicity in human NCI-ADR-RES assessed as inhibition in cell growth measured after 24 hrs by MTT assay", "format": "functional, cell-based"}, "A2780S [4]": {"tested_on": "A2780S", "assay": "Cytotoxicity in human A2780S assessed as inhibition in cell growth measured after 24 hrs by MTT assay", "format": "functional, cell-based"}, "A2780/Taxol [5]": {"tested_on": "A2780/Taxol", "assay": "Antitumor activity against mouse xenografted with human A2780T cell assessed as tumor growth inhibition at 20 mg/kg, ip", "format": "functional", "conditions": "read-out: TGI"}, "A2780/Taxol [6]": {"tested_on": "A2780/Taxol", "assay": "Cytotoxicity in human A2780T assessed as inhibition in cell growth measured after 24 hrs by MTT assay", "format": "functional, cell-based"}, "A2780S [7]": {"tested_on": "A2780S", "assay": "Effect on microtubule network in human A2780S cells assessed as bundling of microtubule fibers near nucleus at 100 nM for 24 hrs", "format": "functional, cell-based"}, "[8]": {"assay": "Drug resistance index, ratio of IC50 for human A2780S cancer cell to ratio of IC50 for human A2780T cancer cell", "format": "functional"}, "A2780/Taxol [9]": {"tested_on": "A2780/Taxol", "assay": "Antitumor activity against human A2780T cells xenografted in mouse assessed as tumor growth inhibition at 20 mg/kg, iv treated 3 times a week", "format": "functional", "conditions": "read-out: TGI"}, "A2780S [10]": {"tested_on": "A2780S", "assay": "Antitumor activity against human A2780S cells xenografted in mouse assessed as tumor growth inhibition at 20 mg/kg, ip", "format": "functional", "conditions": "read-out: TGI"}, "[11]": {"assay": "Drug resistance index, ratio of IC50 for human MCF7 cancer cell to ratio of IC50 for human NCI-ADR-RES cancer cell", "format": "functional"}, "A549/TR": {"tested_on": "A549/TR", "assay": "Cytotoxicity in human A549T assessed as inhibition in cell growth measured after 24 hrs by MTT assay", "format": "functional, cell-based"}}, "note": "Active and inactive are the calls of the source. The calls are words filed in the database; no cut-off is given here.", "data": [{"compound": "CC(=O)O[C@H]1C(=O)[C@@]2(C)[C@H]([C@H](OC(=O)c3ccccc3)[C@]3(O)C[C@H](OC(=O)[C@H](O)[C@@H](NC(=O)c4ccccc4)c4ccccc4)C(C)=C1C3(C)C)[C@]1(OC(C)=O)CO[C@@H]1C[C@@H]2O", "note": "[PACLITAXEL]", "values": [{"measurement": "Ratio IC50", "setting": "[1]", "value": 33.1}, {"measurement": "inhibition in vivo at 40 mg/kg", "setting": "A2780/Taxol [2]", "value": 75.7, "unit": "%"}, {"measurement": "inhibition in vivo at 10 mg/kg", "setting": "A2780/Taxol [3]", "value": 26.9, "unit": "%"}, {"measurement": "IC50", "setting": "NCI/ADR-RES", "value": 9.34, "unit": "µM"}, {"measurement": "IC50", "setting": "A2780S [4]", "value": 60.4, "unit": "nM"}, {"measurement": "inhibition in vivo at 20 mg/kg", "setting": "A2780/Taxol [5]", "value": 21.7, "unit": "%"}, {"measurement": "IC50", "setting": "A2780/Taxol [6]", "value": 58.9, "unit": "µM"}, {"measurement": "Activity", "setting": "A2780S [7]", "value": "Active"}, {"measurement": "Ratio IC50", "setting": "[8]", "value": 974.4}, {"measurement": "inhibition in vivo at 20 mg/kg", "setting": "A2780/Taxol [9]", "value": 37.2, "unit": "%"}, {"measurement": "inhibition in vivo at 20 mg/kg", "setting": "A2780S [10]", "value": 66.1, "unit": "%"}, {"measurement": "Ratio IC50", "setting": "[11]", "value": 289}, {"measurement": "IC50", "setting": "A549/TR", "value": 802, "unit": "nM"}]}]}
